The text below walks through data of PubChem BioAssay AID652102 (NMMLSC, 2013).

This test addresses Botulinum neurotoxin type A (Clostridium botulinum (strain Hall / ATCC 3502 / NCTC 13319 / Type A)) (UniProt P0DPI1). In words: BoNT/A light chain protease inhibitors, confirmation, biochemical, FRET, full-length substrates, powder set 1 (AID 652102). The settings on record: BoNT/A LC protease, FRET full-length substrate cleavage.

pIC50: −log10 of the molar value.

Botulinum neurotoxin type A (Clostridium botulinum (strain Hall / ATCC 3502 / NCTC 13319 / Type A)), sequence (P0DPI1 whole entry, looked up): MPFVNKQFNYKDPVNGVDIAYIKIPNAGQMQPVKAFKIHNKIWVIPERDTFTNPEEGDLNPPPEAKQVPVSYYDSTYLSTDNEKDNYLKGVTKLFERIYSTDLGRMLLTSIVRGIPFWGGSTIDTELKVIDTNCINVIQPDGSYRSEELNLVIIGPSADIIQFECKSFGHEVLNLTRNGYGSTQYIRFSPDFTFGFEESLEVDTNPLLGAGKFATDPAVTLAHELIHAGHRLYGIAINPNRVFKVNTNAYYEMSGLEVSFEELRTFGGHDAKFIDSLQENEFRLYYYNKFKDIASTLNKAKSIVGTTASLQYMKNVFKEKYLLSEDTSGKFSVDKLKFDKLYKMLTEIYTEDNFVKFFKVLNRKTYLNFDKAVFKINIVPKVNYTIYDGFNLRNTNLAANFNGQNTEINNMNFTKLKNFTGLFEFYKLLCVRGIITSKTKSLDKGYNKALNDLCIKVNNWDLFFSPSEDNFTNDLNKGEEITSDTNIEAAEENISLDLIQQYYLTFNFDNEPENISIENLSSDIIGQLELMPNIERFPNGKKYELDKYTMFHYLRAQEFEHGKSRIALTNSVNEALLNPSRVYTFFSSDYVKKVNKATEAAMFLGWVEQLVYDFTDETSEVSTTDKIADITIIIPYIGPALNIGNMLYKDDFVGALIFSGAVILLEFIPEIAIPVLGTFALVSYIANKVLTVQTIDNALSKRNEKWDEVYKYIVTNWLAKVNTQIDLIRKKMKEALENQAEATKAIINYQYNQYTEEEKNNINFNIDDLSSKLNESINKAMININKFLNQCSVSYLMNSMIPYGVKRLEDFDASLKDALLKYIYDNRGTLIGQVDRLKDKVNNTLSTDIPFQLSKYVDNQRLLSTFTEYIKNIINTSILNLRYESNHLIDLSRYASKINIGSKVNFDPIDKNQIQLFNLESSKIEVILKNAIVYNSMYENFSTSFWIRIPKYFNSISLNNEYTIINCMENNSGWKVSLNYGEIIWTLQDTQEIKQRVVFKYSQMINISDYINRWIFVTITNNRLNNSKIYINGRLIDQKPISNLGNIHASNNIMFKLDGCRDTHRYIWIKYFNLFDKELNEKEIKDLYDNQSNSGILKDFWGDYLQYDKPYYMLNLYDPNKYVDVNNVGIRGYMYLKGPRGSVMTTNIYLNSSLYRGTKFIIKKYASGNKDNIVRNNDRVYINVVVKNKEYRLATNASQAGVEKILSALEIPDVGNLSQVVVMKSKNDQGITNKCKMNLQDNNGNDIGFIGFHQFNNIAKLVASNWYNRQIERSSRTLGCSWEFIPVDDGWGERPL

With `c1ccc(-c2cn3nc(-c4ccccc4)c(-c4ccccc4)nc3n2)cc1`, the pIC50 (commonly the negative decadic logarithm of the IC50, by convention in mol/L) was 6.22.
